Experimental findings from patent US8431596B2 (Cancer Research Technology Limited, priority 2007, dated 2013) are described below.

This experiment addresses T1, AXL (human catalytic domain) (Homo sapiens, UniProt P30530).
T1 construct: purchased Upstate Ltd. 14-512
T1 sequence (P30530 473-894): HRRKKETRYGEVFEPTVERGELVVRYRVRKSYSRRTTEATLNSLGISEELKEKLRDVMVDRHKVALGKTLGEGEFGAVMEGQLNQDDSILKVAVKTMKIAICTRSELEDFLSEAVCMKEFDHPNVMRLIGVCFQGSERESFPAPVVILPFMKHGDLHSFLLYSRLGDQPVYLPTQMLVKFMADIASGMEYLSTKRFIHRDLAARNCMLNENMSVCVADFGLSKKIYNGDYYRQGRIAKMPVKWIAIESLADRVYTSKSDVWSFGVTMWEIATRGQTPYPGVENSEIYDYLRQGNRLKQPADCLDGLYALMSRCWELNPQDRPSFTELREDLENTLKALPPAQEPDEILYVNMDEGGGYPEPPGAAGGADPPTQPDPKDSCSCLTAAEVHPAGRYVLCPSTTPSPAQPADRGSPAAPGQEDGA
Briefly: AXL (human catalytic domain) Enzyme Activity Assay (IMAP fluorescence polarisation). Type of experiment: biochemical. In a few lines: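 Recombinant human AXL isoform 1 (aa473-894; final 15 nM) phosphorylated 100 nM fluorescein-CSK-tide with 150 μM ATP (KM) in HEPES pH 7.0/MgCl2/DTT buffer for 60 min at room temperature. IMAP fluorescence polarisation read after overnight binding; IC50 from 10-point 4-parameter logistic fits.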
(In fluorescence polarisation assays a small probe gives low polarisation when free and higher when bound to something large.)

Setting [1] is: further data set (WW-001 through WW-169, XX-001 through XX-469, YY-001 through YY-016, ZZ-001 through ZZ-003), 150 μM ATP.
The mark [2] stands for this setting: first data set, recombinant AXL isoform 1 aa473-894, 150 μM ATP.

Molecules are shown by their SMILES. pIC50: −log10 of the molar value.

A word on the pIC50: it is −log10 of the IC50, conventionally taken in molar units.

As to `c1cc(-c2ccc3c(c2)OCCO3)n2nc(Nc3ccc(NCCN4CCCC4)cc3)nc2c1` [XX-105], the pIC50 under setting [1] is 6.00 to 7.00.

For `c1cc(-c2ccc3c(c2)OCCO3)n2nc(Nc3ccc(OCCN4CCCCC4)cc3)nc2c1` [XX-054], the pIC50 runs as follows: under setting [2], over 6.00; under setting [1], at least 7.00. `COc1ccc(-c2cccc3nc(Nc4cccc(C(=O)NCCO)c4)nn23)cc1` [XX-042] had a pIC50 under setting [1] of 6.00 to 7.00.

In the case of `COc1ccc(-c2nc(COc3cccc(-c4cccc5nc(Nc6ccc(OCCN7CCCC7)cc6)nn45)c3)no2)cc1` [XX-461], the pIC50 under setting [1] is 5.00 to 6.00. In the case of `COc1ccc(-c2cccc3nc(NC(=O)C4CC4)nn23)cc1OC` [WW-100], the pIC50 runs as follows: under setting [2], 5.00 to 6.00; under setting [1], 5.00 to 6.00.

For the molecule `CN(C)CCOc1ccc(Nc2nc3cccc(-c4ccc5c(c4)OCCO5)n3n2)cc1` [XX-055], the pIC50 runs as follows: under setting [2], over 6.00; under setting [1], at least 7.00.

For the molecule `CC(C)CNc1cccc2nc(NC(=O)C3CC3)nn12` [WW-079], the pIC50 by setting is: under setting [2], 5.00 to 6.00; under setting [1], 5.00 to 6.00.

For `O=C(Nc1nc2cccc(-c3ccc([N+](=O)[O-])cc3)n2n1)C1CC1` [WW-107], the pIC50 runs as follows: under setting [2], 5.00 to 6.00; under setting [1], 5.00 to 6.00. With `O=C(Nc1nc2cccc(-c3ccc(F)cc3)n2n1)C1CC1` [WW-013], the pIC50 is, setting by setting: under setting [2], 5.00 to 6.00; under setting [1], 5.00 to 6.00.

On to `Cc1cccc(-c2cccc3nc(Nc4ccc(OCCN5CCCC5)cc4)nn23)c1` [XX-213], for which the pIC50 under setting [1] is 6.00 to 7.00. In the case of `CNCCOc1cccc(Nc2nc3cccc(-c4ccc5c(c4)OCO5)n3n2)c1` [XX-088], the pIC50 is, setting by setting: under setting [2], over 6.00; under setting [1], 6.00 to 7.00. As for `O=C(Nc1nc2cccc(-c3ccco3)n2n1)C1CC1` [WW-061], the pIC50 reads like this: under setting [2], 5.00 to 6.00; under setting [1], 5.00 to 6.00. Under setting [1], `Cc1ccc(S(=O)(=O)Nc2ccc(-c3cccc4nc(Nc5ccc(OCCN6CCCC6)cc5)nn34)cc2)cc1` [XX-271] showed a pIC50 of 6.00 to 7.00. `CS(=O)(=O)c1ccc(-c2cccc3nc(Nc4ccc(OCCN5CCCC5)cc4)nn23)cc1` [XX-215, [5-(4-Methanesulfonyl-phenyl)-[1,2,4]triazolo[1,5-a]pyridin-2-yl]-[4-(2-pyrrolidin-1-yl-ethoxy)-phenyl]-amine]: under setting [1], the negative logarithm of the IC50 (pIC50) was 6.00 to 7.00. Under setting [1], `CCN(CC)CCOc1cc(Nc2nc3cccc(-c4cc5ccccc5o4)n3n2)ccn1` [XX-364] had a pIC50 of 6.00 to 7.00.

Regarding `COc1ccc(-c2cccc3nc(Nc4ccc(C(=O)NCCN(C)C)cc4)nn23)cc1` [XX-036], the pIC50 reads like this: under setting [2], over 6.00; under setting [1], 5.00 to 6.00. Under setting [1], `Cn1nccc1-c1ccc(-c2cccc3nc(Nc4ccc(OCCN5CCCC5)cc4)nn23)cc1` [XX-189] showed a pIC50 of 6.00 to 7.00. On to `COc1ccc(-c2cccc3nc(Nc4ccc(OCCNCCO)cc4)nn23)cc1` [XX-026], for which the pIC50 under setting [2] was over 6.00 and the pIC50 under setting [1] is 6.00 to 7.00. Under setting [1], `c1cc(-c2ccc3c(c2)OCCO3)n2nc(Nc3ccc(SCCN4CCCC4)cc3)nc2c1` [XX-226] had a pIC50 of 6.00 to 7.00. Under setting [1], `c1ccc(-c2cccc(-c3cccc4nc(Nc5ccc(OCCN6CCCC6)cc5)nn34)c2)cc1` [XX-164, (5-Biphenyl-3-yl-[1,2,4]triazolo[1,5-a]pyridin-2-yl)-[4-(2-pyrrolidin-1-yl-ethoxy)-phenyl]-amine] showed a pIC50 of 6.00 to 7.00. For `COc1ccc(-c2cccc3nc(Nc4ccc(OCCn5ccnc5)cc4)nn23)cc1` [XX-016], the pIC50 by setting is: under setting [2], over 6.00; under setting [1], 6.00 to 7.00. Under setting [1], `CCN(CC)CCOc1cc(Nc2nc3cccc(-c4cnn(S(=O)(=O)CC(C)C)c4)n3n2)ccn1` [XX-389] had a pIC50 of 6.00 to 7.00. Turning to `c1ccc2cc(-c3cccc4nc(Nc5ccc(OCCN6CCCC6)cc5)nn34)ccc2c1` [XX-242], the negative logarithm of the IC50 (pIC50) under setting [1] is 6.00 to 7.00. `Oc1cccc(-c2cccc3nc(Nc4ccc(OCCN5CCCC5)cc4)nn23)c1` [XX-256, 3-{2-[4-(2-Pyrrolidin-1-yl-ethoxy)-phenylamino]-[1,2,4]triazolo[1,5-a]pyridin-5-yl}-phenol] gave a pIC50 under setting [1] of 6.00 to 7.00.

As for `COc1ccc(COc2cccc(-c3cccc4nc(Nc5ccc(OCCN6CCCC6)cc5)nn34)c2)cc1` [XX-340], the pIC50 under setting [1] is 6.00 to 7.00. Take `CN1CCCC1CCNc1cccc2nc(NC(=O)C3CC3)nn12` (stereo not drawn) [WW-076]: the pIC50 runs as follows: under setting [2], 5.00 to 6.00; under setting [1], 5.00 to 6.00. For `COC(=O)c1ccc(-c2cccc3nc(Nc4ccc(OCCN5CCCC5)cc4)nn23)cc1` [XX-199], under setting [1], the pIC50 is 6.00 to 7.00.

The molecule `c1ccc(-c2ccc(-c3cccc4nc(Nc5ccc(OCCN6CCCC6)cc5)nn34)cc2)cc1` [XX-216] gave a pIC50 under setting [1] of 6.00 to 7.00. Regarding `CN1CCN(CCOc2ccc(Nc3nc4cccc(-c5ccc6c(c5)OCCO6)n4n3)cc2)CC1` [XX-077], the pIC50 is over 6.00 under setting [2] and at least 7.00 under setting [1].

Molecule `CCCCS(=O)(=O)n1cc(-c2cccc3nc(Nc4ccc(OCCN5CCCC5)cc4)nn23)cn1` [XX-296] showed a pIC50 under setting [1] of 5.00 to 6.00. In the case of `Clc1cc(Cl)cc(-c2cccc3nc(Nc4ccc(OCCN5CCCC5)cc4)nn23)c1` [XX-298], the pIC50 under setting [1] is 6.00 to 7.00. Regarding `CNC(=O)c1ccc(-c2cccc3nc(Nc4ccc(OCCN5CCCC5)cc4)nn23)cc1` [XX-269], under setting [1], the pIC50 is 5.00 to 6.00.

The molecule `c1cc(NCc2cncs2)cc(-c2cccc3nc(Nc4ccc(OCCN5CCCC5)cc4)nn23)c1` [XX-260] showed a pIC50 under setting [1] of 5.00 to 6.00. On to `c1cc(-c2ccc3c(c2)CCO3)n2nc(Nc3ccc(N4CCNCC4)cc3)nc2c1` [XX-059], for which the pIC50 is, setting by setting: under setting [2], over 6.00; under setting [1], 6.00 to 7.00. On the same counts, the results for `CNc1ccc(Nc2nc3cccc(-c4ccc(OC)cc4)n3n2)cc1` [XX-056] are 5.00 to 6.00 and 5.00 to 6.00.

`c1cc(-c2ccc3c(c2)OCCO3)n2nc(Nc3ccc(OCCCN4CCCCC4)cc3)nc2c1` [XX-419] gave a pIC50 under setting [1] of 6.00 to 7.00. The same measure, in the same setting: to `COc1cc(Nc2nc3ccnc(-c4ccc5c(c4)OCCO5)n3n2)ccc1OCCN1CCCC1` [YY-008] belongs 6.00 to 7.00. For `O=C(Nc1nc2cccc(-c3ccc4[nH]ccc4c3)n2n1)C1CC1` [WW-018], the pIC50 by setting is: under setting [2], over 6.00; under setting [1], 6.00 to 7.00. Take `c1cc(-c2cncnc2)cc(-c2cccc3nc(Nc4ccc(OCCN5CCCC5)cc4)nn23)c1` [XX-469]: under setting [1], the pIC50 was 6.00 to 7.00. Same read-out and setting: then `COc1ncccc1-c1cccc2nc(Nc3ccc(OCCN4CCCC4)cc3)nn12` [XX-200], with 5.00 to 6.00. In the case of `Clc1ccc(Cn2cc(-c3cccc4nc(Nc5ccc(OCCN6CCCC6)cc5)nn34)cn2)cc1` [XX-304], under setting [1], the pIC50 is at least 7.00. `COc1ccc(-c2cccc3nc(Nc4ccc(OCCN5CCCC5)cc4)nn23)cc1OC` [XX-245] had a pIC50 under setting [1] of 5.00 to 6.00. For the molecule `CS(=O)(=O)c1ccc(-c2cccc3nc(NC(=O)C4CC4)nn23)cc1` [WW-014], the pIC50 is, setting by setting: under setting [2], 5.00 to 6.00; under setting [1], 5.00 to 6.00.

For the molecule `CS(=O)(=O)Nc1ccc(-c2cccc3nc(NC(=O)C4CC4)nn23)cc1` [WW-017], the pIC50 was 5.00 to 6.00 under setting [2] and 5.00 to 6.00 under setting [1]. Take `O=C(CN1CCCCC1)Nc1cccc(Nc2nc3cccc(-c4ccc5c(c4)OCCO5)n3n2)c1` [XX-121]: the pIC50 under setting [1] was 6.00 to 7.00. As for `O=C(Nc1nc2cccc(-c3ccc(N4CCOCC4)cc3)n2n1)C1CC1` [WW-026], the pIC50 is, setting by setting: under setting [2], over 6.00; under setting [1], 6.00 to 7.00. `Clc1cccc(SCCn2cc(-c3cccc4nc(Nc5ccc(OCCN6CCCC6)cc5)nn34)cn2)c1` [XX-431] gave a pIC50 under setting [1] of 6.00 to 7.00. Turning to `FC(F)(F)c1cccc(COc2cccc(-c3cccc4nc(Nc5ccc(OCCN6CCCC6)cc5)nn34)c2)c1` [XX-401], under setting [1], the pIC50 was 5.00 to 6.00.

For the molecule `Clc1cccc(COc2cccc(-c3cccc4nc(Nc5ccc(OCCN6CCCC6)cc5)nn34)c2)c1` [XX-330], the pIC50 under setting [1] was 5.00 to 6.00. On to `c1cc(-c2ccc(OCC3CCCO3)cc2)n2nc(Nc3ccc(OCCN4CCCC4)cc3)nc2c1` (stereo not drawn) [XX-146], for which the pIC50 under setting [1] was 6.00 to 7.00. `Cn1cc(-c2cccc3nc(NC(=O)C4CC4)nn23)cn1` [WW-064]: the pIC50 was over 6.00 under setting [2] and 6.00 to 7.00 under setting [1]. On to `Nc1ccc(-c2cccc3nc(Nc4ccc(OCCN5CCCC5)cc4)nn23)cc1` [XX-184], for which the pIC50 under setting [1] is 6.00 to 7.00. `Cc1csc(SCCn2cc(-c3cccc4nc(Nc5ccc(OCCN6CCCC6)cc5)nn34)cn2)n1` [XX-424]: the pIC50 under setting [1] was 6.00 to 7.00. For the molecule `COc1cccc(COc2ccc(-c3cccc4nc(NC(=O)C5CC5)nn34)cc2)c1` [WW-123, Cyclopropanecarboxylic acid {5-[4-(3-methoxy-benzyloxy)-phenyl]-[1,2,4]triazolo[1,5-a]pyridin-2-yl}-amide], the pIC50 under setting [2] is 5.00 to 6.00 and the pIC50 under setting [1] is 5.00 to 6.00. `c1cc(-c2ccoc2)cc(-c2cccc3nc(Nc4ccc(OCCN5CCCC5)cc4)nn23)c1` [XX-165] gave a pIC50 under setting [1] of 6.00 to 7.00. As to `CN(C)CC(C)(C)Oc1ccc(Nc2nc3cccc(-c4ccc5c(c4)OCCO5)n3n2)cc1` [XX-126], the pIC50 under setting [1] is 6.00 to 7.00. Molecule `CCN(CC)CCOc1cccc(Nc2nc3cccc(-c4ccc5c(c4)OCCN5C)n3n2)c1` [XX-096] had a pIC50 under setting [1] of 6.00 to 7.00. For `Cc1ccc(CNc2cccc(-c3cccc4nc(Nc5ccc(OCCN6CCCC6)cc5)nn34)c2)o1` [XX-395], the pIC50 under setting [1] was 6.00 to 7.00.

As to `COc1cccc(-c2cccc3nc(NC(=O)C4CC4)nn23)c1` [WW-024], the pIC50 reads like this: under setting [2], 5.00 to 6.00; under setting [1], 5.00 to 6.00.
